{"source": "patent US20240058265A1", "about": "“TREATMENT OF OCULAR DISEASES USING ENDOTHELIN RECEPTOR ANTAGONISTS” (Perfuse Therapeutics, Inc., priority 2021, published 2024)", "key": {"[1]": {"experiment": "Permeability (PAMPA)", "assay_type": "in vitro ADME", "from_the_text": "(§1) In the above table, the physicochemical data, e.g., solubility, were obtained following standard protocols known in the field (see, e.g., Reis et al., Mini Rev Med Chem., 2010, 10(11):1071-6; Avdeef et al., Expert Opin Drug Metab Toxicol., 2005, 1(2):325-42; Bharate et al., Comb Chem High Throughput Screen., 2016, 19(6):461-9; and Jain et al., J Pharm Biomed Anal., 2013, 86:11-35.); and the biochemical data, i.e., potency for ETA/ETB, were obtained following the protocols known in the field (see, e.g., Kirkby et al., Br J Pharmacol., 2008, 153(6):1105-19; and Maguire et al., Br J Pharmacol., 2014, 171(24):5555-72.)."}, "[2]": {"experiment": "Solubility (pH 2, pH 7, ethyl acetate)", "assay_type": "physicochemical", "from_the_text": "as §1"}, "[3]": {"tested_on": "ETA/ETB receptor", "conditions": "cited from earlier work"}, "[4]": {"tested_on": "elevated IOP rat eye", "experiment": "Morrison's rat model of glaucoma (RGC counts, PERG)", "assay_type": "in vivo, Brown Norway rats", "conditions": "topical eye drops 100 μg per dose, five days a week, four weeks", "from_the_text": "Adult male and female retired breeder Brown Norway rats (approximate age groups of 8 to 11 months) were obtained from Envigo (Indianapolis, IN). Baseline IOP measurements and pattern electroretinogram (PERG) amplitudes were collected prior to the surgery for elevation of IOP (to ensure that the IOP and PERG amplitudes were in the expected range of values). IOP was elevated in one eye (left eye) of the rats, while the corresponding right eyes served as contralateral controls. The Morrison method to elevate IOP in rats was carried out by injection of 50 μL of hypertonic saline through the episcleral veins to sclerose the trabecular meshwork. IOP was measured twice a week throughout the entire duration of the experiment. […] After detecting an elevation of IOP for two consecutive days, topical administration of eye drops ([…] (100 μg,) per dose of the tested compounds in the IOP elevated eye) was commenced and carried out for five days a week for a total of four weeks. In the 4th week of treatment, PERG analysis was carried out and rats were sacrificed by an overdose of pentobarbital (fatal-Plus). Aqueous humor was collected from the rat eyes, frozen and shipped for analysis. Retinal flat mounts were prepared, immunostained with the RGC marker, Brn3a antibody and surviving RG-Cs were counted in two eccentricities (central and peripheral).\nFor this study, the Morrison's model was used to induce ocular hypertension in adult male retired breeder Brown Norway rats as previously described by. Morrison et al., (Morrison J C, Moore C G, Deppmeier L M, Gold B G, Meshul C K, Johnson E C. A rat model of chronic pressure-induced optic nerve damage. Exp Eye Res. 1997;64(1):85-96).\nThe immunostained retinal flat mounts were obtained to measure the retinal ganglion cell (RGC) counts. To obtain immunostained retinal flat mounts, the animals were euthanized after the treatments and then their eyes were enucleated. The eye cups were fixed overnight at 4° C. in 4% paraformaldehyde (PFA) and retinal flat mounts were prepared for collecting images. The retinal ganglion cell (RGC) counting was conducted using the images of immunostained retinal flat mounts. The images were uploaded to ImageJ, a photo editor designed for biology research (Rasband, 1997-2018) and the labeled retinal ganglion cells were counted manually in two eccentricities (central and peripheral).\nPattern ERG (PERG) was used to assess the RGC function. […] Briefly, PERG signals were acquired from a DTL-plus electrode placed on the lower part of the corneal surface and the PERG waves were analyzed using the EMWIN software (LKC). The difference between the amplitude of the major positive (P1) and negative (N2) waves were calculated to decipher the PERG amplitude."}, "[5]": {"experiment": "Stability in solid state", "assay_type": "physicochemical", "conditions": "2 h@125° C.", "from_the_text": "as §1"}, "[6]": {"experiment": "Pharmacokinetics after topical or oral administration in the rat", "assay_type": "in vivo, Brown Norway rats", "procedure": "After the administrations, the animals (N=2) were euthanized at different time points (e.g. 4 and 8 hours) and tissues were collected for analysis. List of tissues collected include plasma, retina/retinal pigment epithelium (RPE)/choroid, vitreous humor and aqueous humor."}, "[7]": {"molecular_target": "T1, ETA receptor (Homo sapiens, UniProt P25101)", "T1 sequence (P25101 21-427)": "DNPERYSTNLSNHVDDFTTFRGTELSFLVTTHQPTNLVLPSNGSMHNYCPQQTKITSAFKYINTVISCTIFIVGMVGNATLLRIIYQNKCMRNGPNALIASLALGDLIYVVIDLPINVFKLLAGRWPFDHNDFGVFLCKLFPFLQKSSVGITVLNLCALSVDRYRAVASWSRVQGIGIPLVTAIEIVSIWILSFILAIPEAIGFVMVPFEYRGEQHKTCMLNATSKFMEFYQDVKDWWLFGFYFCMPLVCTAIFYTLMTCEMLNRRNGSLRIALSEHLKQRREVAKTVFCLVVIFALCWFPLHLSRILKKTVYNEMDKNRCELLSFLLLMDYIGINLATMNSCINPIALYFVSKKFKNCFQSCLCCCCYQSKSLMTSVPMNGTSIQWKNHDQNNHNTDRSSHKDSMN", "experiment": "Functional potency for ETA receptor", "assay_type": "biochemical", "from_the_text": "as §1"}, "[8]": {"tested_on": "ET-1 induced vasospasm", "experiment": "Rabbit ET-1 induced vasospasm model, retinal blood flow (OCT-A, FA)", "assay_type": "in vivo, rabbit (Oryctolagus cuniculus)", "procedure": "Adult, male Dutch-belted rabbits were given a 20 μl intravitreal injection (IVT) of 0.5 μg of ET-1 followed by a 20 μl intravitreal injection of 10-100 μg Edonentan given 30 min after the ET-1 administration. IOP, optical coherence tomography—angiography (OCT-A), and fluorescein angiograms (FA) were performed at pre-specified time points (30, 45, 60, and 75 min) following ET-1 and Edonentan administration to assess retinal blood flow changes induced by ET-1+/−Edonentan. […] To evaluate the effect of retinal blood flow following intravitreally administered endothelin-1 (ET-1) followed by the antagonist Edonentan in the rabbit, rabbits (Oryctolagus cuniculus) were given a 20 μL intravitreal injection of ET-1 in the left eye followed by a 20 μL intravitreal injection of Edonentan at 2 (or 3) different doses (e.g. 0.1 μg, 0.5 μg, 2.5 μg). The pulse ox, tonometry, optical coherence tomography angiography (OCTA), fluorescein angiography (FA) and retinal leakage scoring were performed for evaluation."}, "[9]": {"experiment": "Solubility of crystalline forms", "assay_type": "physicochemical", "conditions": "room temperature, 24 hours", "procedure": "The solubility described herein can be measured using the following procedure: • ii. Solubility Analysis Protocol • 1. No less than 2.0 mg samples are weighed into lower chamber of whatman miniuniprep vials (GE Healthcare). 450 μL of buffer was added into each chamber. • 2. Filter pistons of miniuniprep vials are placed and compressed to the position of the liquid level to allow for contact of buffer and compound with the filter during incubation. • 3. The samples are vortexed for 2 minutes followed by incubation at room temperature (about 25±2° C.) for 24 hours with shaking at 500 rpm. • 4. Miniunipreps are compressed to prepare the filtrates for injection into HPLC system. All vials are inspected for visible undissolved material before filtering and for leakage after filtering. • 5. Dilute supernatant with buffer by a factor of 100 folds to make diluents which are analyzed with HPLC."}, "[10]": {"experiment": "Slurry conversion of crystalline forms (relative thermodynamic stability)", "assay_type": "physicochemical", "procedure": "In an alternate method, 150 mg of Edonentan (Form 3) was added to a mixture of isopropanol and water (1 mL and 2 mL, respectively). The resulting slurry was stirred at 15° C. for 48 hours and then filtered.\nIn an alternate method, 200 mg of Edonentan (Form 1) was added to a mixture of isopropanol and water (1.3 mL and 2.6 mL, respectively). The resulting solution was heated to 80° C. and stirred for 24 h, then cooled and filtered."}, "[11]": {"tested_on": "laser-induced glaucoma eye", "experiment": "Laser-induced glaucoma non-human primate, intraocular pressure after topical administration", "assay_type": "in vivo, rhesus macaque, Macaca Mulatta", "conditions": "single dose 50 μL topical 0.5% in each eye, 120 minutes", "procedure": "Non-human primates (rhesus macaque, Macaca Mulatta) were obtained for this study. One eye of each animal underwent induction of elevation of intraocular pressure (TOP) by repeated laser photocoagulation of the trabecular meshwork. Imaging sessions were repeated to monitor the optic nerve head (ONH) and retinal structural changes. A single dose of 0.5% Timolol or a single dose of 2 mg/mL Edonentan was topically administered to three non-human primates that have laser-induced glaucoma in their right eyes (OD) with 1-week wash-out in a randomized order."}}, "note": "Where “and” joins values, the source holds several entries; their conditions need not be identical. Equal values may be shown once. Read-outs that look alike come from different tables or passages of the source. Where no end group is shown, it is not given here.", "data": [{"molecule": "CCCCCS(=O)(=O)N(CCC)CCN1C[C@H](c2ccc3c(c2)OCO3)[C@@H](C(=O)O)[C@@H]1c1ccc(OC)c(F)c1", "note": "[A-182086, (2R,3R,4S)-4-(2H-1,3-benzodioxol-5-yl)-2-(3-fluoro-4-methoxyphenyl)-1-[2-(N-propylpentane-1-sulfonamido)ethyl]pyrrolidine-3-carboxylic acid]", "values": [{"measurement": "Permeability (rating)", "setting": "[1]", "value": "Mid-High"}, {"measurement": "Solubility in Ethyl Acetate (rating)", "setting": "[2]; ethyl acetate", "value": "Good"}, {"measurement": "solubility", "setting": "[2]; ethyl acetate, organic solvent or mixture, read-out: Solubility in Ethyl Acetate", "value": "> 10600 µg/mL and > 18400 µM"}, {"measurement": "solubility", "setting": "[2]; pH 2, read-out: Solubility at pH 2", "value": 159.8, "unit": "µM"}, {"measurement": "Solubility at pH 7", "setting": "[2]; pH 7, amorphous form", "value": 298.4, "unit": "μM"}, {"measurement": "ETA/ETB selectivity", "setting": "[3]", "value": 4, "unit": "fold"}, {"measurement": "RGC function (PERG)", "setting": "[4]", "value": "maintained RGC function"}, {"measurement": "RGC loss (RGC counts, retinal flat mounts)", "setting": "[4]", "value": "prevented RGC loss"}, {"measurement": "Stability in Solid State (verdict)", "setting": "[5]", "value": "unstable"}, {"measurement": "Stability in Solid State, remaining", "setting": "[5]", "value": "about 87% remaining/"}, {"measurement": "Detection in retina/RPE/choroid after oral administration", "setting": "[6]; oral, 50 mg/kg", "value": "detectable"}, {"measurement": "Detection in retina/RPE/choroid, aqueous humor and vitreous humor", "setting": "[6]; topical eye drop 100 μg, 4 and 8 hours", "value": "detected"}, {"measurement": "Functional potency for ETA and ETB receptors (rating)", "setting": "[7]", "value": "High potency"}, {"measurement": "Specificity ETA vs ETB (rating)", "setting": "[7]", "value": "Low specificity"}, {"measurement": "Fluorescein dye velocity as an index of retinal blood flow", "setting": "[8]; healthy rabbits, 0.5 μg ET-1 and 10 μg antagonist IVT (FIG. 3)", "value": "improved to control levels"}]}, {"molecule": "Cc1onc(NS(=O)(=O)c2ccccc2-c2ccc(-c3ncco3)cc2CN(C)C(=O)CC(C)(C)C)c1C", "note": "[Form 1]", "values": [{"measurement": "Solubility pH 7.0 Phosphate Buffer", "setting": "[9]", "value": 264, "unit": "μg/mL"}]}, {"molecule": "Cc1onc(NS(=O)(=O)c2ccccc2-c2ccc(-c3ncco3)cc2CN(C)C(=O)CC(C)(C)C)c1C", "note": "[Form 2]", "values": [{"measurement": "Solubility pH 7.0 Phosphate Buffer", "setting": "[9]", "value": 35, "unit": "μg/mL"}]}, {"molecule": "Cc1onc(NS(=O)(=O)c2ccccc2-c2ccc(-c3ncco3)cc2CN(C)C(=O)CC(C)(C)C)c1C", "note": "[Form 3]", "values": [{"measurement": "Solubility pH 7.0 Phosphate Buffer", "setting": "[9]", "value": 251, "unit": "μg/mL"}]}, {"molecule": "Cc1onc(NS(=O)(=O)c2ccccc2-c2ccc(-c3ncco3)cc2CN(C)C(=O)CC(C)(C)C)c1C", "note": "[Form 4]", "values": [{"measurement": "Solubility pH 7.0 Phosphate Buffer", "setting": "[9]", "value": 138, "unit": "μg/mL"}, {"measurement": "Relative thermodynamic stability of crystalline form", "setting": "[10]; isopropanol and water, 80° C., 24 h", "value": "more thermodynamically stable than Form 1"}, {"measurement": "Relative thermodynamic stability of crystalline form", "setting": "[10]; slurry in isopropanol and water, 15° C., 48 hours", "value": "more thermodynamically stable than Form 3"}]}, {"molecule": "CC(C)(C)NC[C@H](O)COc1nsnc1N1CCOCC1", "note": "[Timolol, reference compound]", "values": [{"measurement": "IOP reduction from pre-dose to post-dose", "setting": "[11]; Control 1", "value": "about 20%"}, {"measurement": "IOP reduction from pre-dose to post-dose", "setting": "[11]; Control 2", "value": "about 30%"}]}, {"molecule": "ET-1: Endothelin-1, given intravitreally to induce vasospasm in rabbit retina (CSCSSLMDKECVYFCHLDIIW; ends and bridges not checked; cysteine pairing not given here; UniProt P05305 53-73, looked up) [reference compound]", "values": [{"measurement": "Vasoconstriction in the retinal vascular beds", "setting": "[8]; 0.5 μg ET-1 IVT, within 45 min", "value": "induced a clear vasoconstriction"}]}]}
